Assays:
Assay type in all cases: functional
Rattus norvegicus [1] = organism: Rattus norvegicus; test: Dose required to inhibit gastric secretory activity in pylorus lygated rats; details: Stomach
Rattus norvegicus [2] = test: Gastric antisecretory activity at the dose of 100 mg/kg in pylorus lygated rats
Rattus norvegicus [3] = organism: Rattus norvegicus; test: Dose required to inhibit ulcer induced by stress in rats

| SMILES | ED50 (Rattus norvegicus [1]) [mg/kg] | inhibition in vivo at 100 mg/kg (Rattus norvegicus [2]) [%] | ED50 (Rattus norvegicus [3]) [mg/kg] |
| --- | --- | --- | --- |
| CCC/N=C(/NC#N)NCCCn1nc(-c2ccccc2)ccc1=O | 100 | 52.9 |  |
| C/N=C(/NC#N)NCCCCCCn1nc(-c2ccccc2)ccc1=O | > 100 | 31.7 | > 100 |
| O=c1ccc(-c2ccccc2)nn1CCCC/N=C(\S)Nc1ccc(F)cc1 | > 100 | 45.6 |  |
| CC/N=C(\S)NCCn1nc(-c2ccccc2)ccc1=O |  | 8.1 |  |
| C/N=C(\S)NCCCCn1nc(-c2ccccc2)ccc1=O | 28.9 | 87.1 | 17.3 |
| N#CNC(=N)NCCn1nc(-c2ccccc2)ccc1=O |  | 18.5 |  |
| CC/N=C(/NC#N)NCCCn1nc(-c2ccccc2)c(C)cc1=O |  | 0.2 |  |
| CC/N=C(/NC#N)NCCCn1nc(-c2ccccc2)cc(C)c1=O |  | 23.5 |  |
| C/N=C(/NC#N)NCCCCn1nc(-c2ccc(C)cc2)ccc1=O | > 100 | 45.7 |  |
| O=c1ccc(-c2ccccc2)nn1CCCCNC(=S)Nc1cccc2ccccc12 | > 100 | 42.3 |  |
| C/N=C(/NC#N)NCCCCn1nc(Nc2ccccc2)ccc1=O | > 100 | 24.4 |  |
| C/N=C(/NC#N)NCCCCn1nc(N(C)C)ccc1=O | > 100 | 26.3 |  |
| CC/N=C(/NC#N)NCCCCn1nc(-c2ccccc2)ccc1=O | 92 | 58.8 | 60.7 |
| C/N=C(\S)NCCCn1nc(C)ccc1=O |  | -8.2 |  |
| N#CN/C(=N\CCCCn1nc(-c2ccccc2)ccc1=O)NCCc1ccccc1 |  | 0.3 |  |
| C/N=C(\S)NCCn1nc(C)ccc1=O |  | 6 |  |
| C/N=C(\S)NCCCCn1nc(C)ccc1=O | > 100 | 44.5 |  |
| C/N=C(/NC#N)NCCCCCn1nc(-c2ccccc2)cc(C)c1=O | > 100 | 33.8 |  |
| CC/N=C(\S)NCCCCCCn1nc(-c2ccccc2)ccc1=O |  | -5.6 |  |
| CC(C)(C)/N=C(\S)NCCCCn1nc(-c2ccccc2)ccc1=O | > 100 | 33.6 |  |
| C/N=C(/NC#N)NCCCn1nc(-c2ccccc2)cc(C)c1=O | > 100 | 42.8 |  |

| SMILES | ED50 (Rattus norvegicus [1]) [mg/kg] | inhibition in vivo at 100 mg/kg (Rattus norvegicus [2]) [%] | ED50 (Rattus norvegicus [3]) [mg/kg] |
| --- | --- | --- | --- |
| CC/N=C(/NC#N)NCCCn1nc(-c2ccccc2)ccc1=O | 78.3 | 62.9 | 88.5 |
| C/N=C(/NC#N)NCCCn1nc(-c2ccccc2)c(C)cc1=O |  | 17.2 |  |
| O=c1ccc(-c2ccccc2)nn1CCCC/N=C(\S)Nc1ccc(S(=O)(=O)O)cc1 |  | 25.1 |  |
| O=c1ccc(-c2ccccc2)nn1CCNC(=S)Nc1ccccc1 |  | -3.4 |  |
| C/N=C(/NC#N)NCCCCn1nc(-c2ccccc2)c(C)cc1=O | > 100 | 46.4 |  |
| C/N=C(/NC#N)NCCCCn1nc(N2CCOCC2)ccc1=O |  | -10.2 |  |
| C/N=C(\S)NCCCn1nc(-c2ccccc2)ccc1=O | > 100 | 38.9 | 58 |
| C/N=C(\S)NCCCCCn1nc(C)ccc1=O |  | 3.2 |  |
| C/N=C(/NC#N)NCCCCCn1nc(-c2ccccc2)c(C)cc1=O | > 100 | 28.5 |  |
| CC/N=C(\S)NCCCCn1nc(-c2ccccc2)ccc1=O | 37.2 | 67.7 | 19.8 |
| C/N=C(/NC#N)NCCn1nc(-c2ccccc2)ccc1=O |  | -3.5 |  |
| C#CCN/C(=N/CCCn1nc(-c2ccccc2)ccc1=O)NC#N |  | -11.8 |  |
| CNC(=S)CCCCCn1nc(-c2ccccc2)ccc1=O | 23.8 | 90.3 | 18.3 |
| CC/N=C(/NC#N)NCCCCCn1nc(-c2ccccc2)ccc1=O | 100 | 48.2 | 60.3 |
| CN(C)/C(=N/CCn1nc(-c2ccccc2)ccc1=O)NC#N | 62.8 | 63.9 | > 100 |
| CN/C(=N/CCCCn1nc(-c2ccc(OC)cc2)ccc1=O)NC#N | > 100 | 48.5 |  |
| C/N=C(\S)N(C)CCCCn1nc(-c2ccccc2)ccc1=O |  | 17.5 |  |
| CCC/N=C(/NC#N)NCCCCn1nc(-c2ccccc2)ccc1=O | > 100 | 26.3 |  |
| CC/N=C(/NC#N)NCCCCn1nc(-c2ccccc2)c(C)cc1=O | > 100 | 38.8 |  |
| C/N=C(\S)NCCCCCn1nc(-c2ccccc2)ccc1=O | 35.3 | 68.9 | 42.1 |
| C/N=C(/NC#N)NCCCCCn1nc(C)ccc1=O |  | 14.9 |  |

| SMILES | ED50 (Rattus norvegicus [1]) [mg/kg] | inhibition in vivo at 100 mg/kg (Rattus norvegicus [2]) [%] | ED50 (Rattus norvegicus [3]) [mg/kg] |
| --- | --- | --- | --- |
| CCC/N=C(/NC#N)NCCCn1nc(C)ccc1=O |  | 17.5 |  |
| O=c1ccc(-c2ccccc2)nn1CCCCNC(=S)Nc1ccccc1 | > 100 | 38.4 | > 100 |
| O=c1ccc(-c2ccccc2)nn1CCCCNC(=S)NCc1ccccc1 |  | 5.4 |  |
| C/N=C(/NC#N)NCCCCn1nc(-c2ccc(Cl)cc2)ccc1=O | 100 | 51 |  |
| CN(C)/C(=N/CCCCCn1nc(-c2ccccc2)ccc1=O)NC#N | 81.5 | 63.9 | 53.1 |
| C/N=C(\S)NCCCCCCn1nc(-c2ccccc2)ccc1=O |  | 22.2 |  |
| CN(C)/C(=N/CCCCCCn1nc(-c2ccccc2)ccc1=O)NC#N | 93.1 | 58.4 | 92.5 |
| CC/N=C(\S)NCCCn1nc(-c2ccccc2)ccc1=O | > 100 | 39 | 88.2 |
| O=c1ccc(-c2ccccc2)nn1CCCCNC(=S)NC1CCCCC1 |  | 18.1 |  |
| CC/N=C(/NC#N)NCCCn1nc(C)ccc1=O | > 100 | 34.5 |  |
| C/N=C(\NC#N)NCCCCn1nc(-c2ccccc2)ccc1=O |  | 79 |  |
| CC/N=C(/NC#N)NCCCCn1nc(-c2ccccc2)cc(C)c1=O | > 100 | 42.5 |  |
| N#CNC(=N)NCCCCCn1nc(-c2ccccc2)ccc1=O | > 100 | 31 |  |
| O=c1ccc(-c2ccccc2)nn1CCCCNC(=S)Nc1ccc(Cl)cc1 | > 100 | 43.2 |  |
| O=c1ccc(-c2ccccc2)nn1CCCNC(=S)NC1CCCCC1 |  | 23.6 |  |
| C/N=C(/NC#N)NCCCCCn1nc(-c2ccccc2)ccc1=O | 100 | 47.6 | 76.2 |
| N#CNC(=N)NCCCCn1nc(-c2ccccc2)ccc1=O | 77.2 | 61.2 | 59.3 |
| N/C(S)=N/CCCCn1nc(-c2ccccc2)ccc1=O | 36.3 | 72 |  |
| C/N=C(/NC#N)NCCCCn1nc(C)ccc1=O | > 100 | 23.5 |  |
| CC/N=C(/NC#N)NCCCCCCn1nc(-c2ccccc2)ccc1=O | > 100 | 29.1 | > 100 |
| CN(C)/C(=N/CCCn1nc(-c2ccccc2)ccc1=O)NC#N | 53 | 72.2 | 93.1 |

| SMILES | ED50 (Rattus norvegicus [1]) [mg/kg] | inhibition in vivo at 100 mg/kg (Rattus norvegicus [2]) [%] | ED50 (Rattus norvegicus [3]) [mg/kg] |
| --- | --- | --- | --- |
| C#CCN/C(=N/CCCCn1nc(-c2ccccc2)ccc1=O)NC#N |  | -12.9 |  |
| C=CCNC(=S)NCCCCn1nc(-c2ccccc2)ccc1=O | > 100 | 27.1 | 78.6 |
| O=c1ccc(-c2ccccc2)nn1CCCC/N=C(\S)Nc1cccc(F)c1 | > 100 | 30.4 |  |
| CC/N=C(\S)NCCCCCn1nc(-c2ccccc2)ccc1=O | 51.8 | 66.4 |  |
| CCC/N=C(/NC#N)NCCCCCn1nc(-c2ccccc2)ccc1=O | > 100 | 27.5 |  |
| C/N=C(\S)NCCn1nc(-c2ccccc2)ccc1=O |  | 23.3 | > 100 |
| O=c1ccc(-c2ccccc2)nn1CCCNC(=S)Nc1ccccc1 |  | 12.1 |  |
| N#CNC(=N)NCCCCCCn1nc(-c2ccccc2)ccc1=O |  | 20.5 |  |
| C/N=C(\S)NCCCCCCn1nc(C)ccc1=O |  | -12.5 |  |
| C/N=C(/NC#N)NCCCCn1nc(N2CCN(C)CC2)ccc1=O |  | 7.9 |  |
| O=c1ccc(-c2ccccc2)nn1CCNC(=S)NC1CCCCC1 |  | 12.3 |  |
| N#CNC(=N)NCCCn1nc(-c2ccccc2)ccc1=O | > 100 | 33.3 |  |
| C/N=C(/NC#N)NCCCCn1nc(-c2ccccc2)cc(C)c1=O | 60.8 | 68.6 |  |
| CC(C)C/N=C(\S)NCCCCn1nc(-c2ccccc2)ccc1=O | > 100 | 35.8 |  |
| C/N=C(/NC#N)NCCCn1nc(C)ccc1=O |  | 6.8 |  |
| CN(C)/C(=N/CCCCn1nc(-c2ccccc2)ccc1=O)NC#N | 30.3 | 80.7 | 52.9 |
| C/N=C(/NC#N)NCCCCn1nc(N2CCCC2)ccc1=O |  | -1 |  |
| C/N=C(/NC#N)N(C)CCCCn1nc(-c2ccccc2)ccc1=O | > 100 | 27 |  |
| CC/N=C(/NC#N)NCCCCn1nc(C)ccc1=O |  | 13.5 |  |
| C/N=C(/NC#N)NCCCn1nc(-c2ccccc2)ccc1=O | > 100 | 40.5 | 78.1 |
| CN/C(=N\CCSCc1nc[nH]c1C)NC#N [CIMETIDINE] |  | 80.6 | 43.2 |

From ChEMBL document CHEMBL1122344, “Pyridazinones. 2. Synthesis and antisecretory and antiulcer activities of thiourea and 2-cyanoguanidine derivatives” (1983)
